Laboratory results reported in patent publication US20170022171A1, “2,5-DISUBSTITUTED CYCLOPENTANECARBOXYLIC ACIDS AND THEIR USE” (Bayer Pharma Aktiengesellschaft, priority 2014, published 2017).

Tests used:
Format in all cases: biochemical
MMP-16 = molecular target: T1, MMP-16 (Homo sapiens, UniProt P51512); experiment: In vitro MMP-16 inhibition test
T1 construct: purchased R&D Systems 1785-MP
In short: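 Furin-activated recombinant MMP-16 (e.g. 1 nM) in 50 mM Tris/HCl pH 7.5, 10 mM CaCl2, 150 mM NaCl and 0.05% Brij-35 received compound in DMSO (e.g. 1 nM–30 μM), then 5 μM Mca-Lys-Pro-Leu-Gly-Leu-Dpa(Dnp)-Ala-Arg-NH2. Fluorescence (ex 320/em 410 nm) was followed, e.g. over 120 min at 32 °C. IC50 is the concentration halving the signal.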

MMP-1 = molecular target: T2, MMP-1 (Homo sapiens, UniProt P03956); experiment: In vitro MMP-1 inhibition test
T2 construct: purchased R&D Systems 901-MP
T2 sequence (P03956 100-469): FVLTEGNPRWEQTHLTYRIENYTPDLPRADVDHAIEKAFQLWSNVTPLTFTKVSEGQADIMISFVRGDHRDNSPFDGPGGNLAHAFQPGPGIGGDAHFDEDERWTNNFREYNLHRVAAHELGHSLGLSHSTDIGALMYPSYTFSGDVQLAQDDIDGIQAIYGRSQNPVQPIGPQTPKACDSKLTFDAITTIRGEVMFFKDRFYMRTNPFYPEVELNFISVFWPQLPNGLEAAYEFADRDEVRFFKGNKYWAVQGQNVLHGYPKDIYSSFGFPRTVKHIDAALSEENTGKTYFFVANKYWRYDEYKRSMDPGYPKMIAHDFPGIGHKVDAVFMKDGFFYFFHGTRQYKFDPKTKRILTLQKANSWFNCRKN
In short: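 APMA-activated recombinant enzyme (e.g. 2 nM final) in 50 mM Tris/HCl pH 7.5, 10 mM CaCl2, 150 mM NaCl, 0.05% Brij-35 with compound in DMSO (e.g. 1 nM–30 μM). Quenched Mca-Pro-Leu-Gly-Leu-Dpa(Dnp)-Ala-Arg-NH2 substrate (e.g. 10 μM) started reaction; fluorescence (ex 320/em 410 nm) followed e.g. 120 min at 32° C; IC50 at 50% signal.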

MMP-2 = molecular target: T3, MMP-2 (Homo sapiens, UniProt P08253); experiment: In vitro MMP-2 inhibition test
T3 construct: purchased R&D Systems 902-MP
T3 sequence (P08253 110-660): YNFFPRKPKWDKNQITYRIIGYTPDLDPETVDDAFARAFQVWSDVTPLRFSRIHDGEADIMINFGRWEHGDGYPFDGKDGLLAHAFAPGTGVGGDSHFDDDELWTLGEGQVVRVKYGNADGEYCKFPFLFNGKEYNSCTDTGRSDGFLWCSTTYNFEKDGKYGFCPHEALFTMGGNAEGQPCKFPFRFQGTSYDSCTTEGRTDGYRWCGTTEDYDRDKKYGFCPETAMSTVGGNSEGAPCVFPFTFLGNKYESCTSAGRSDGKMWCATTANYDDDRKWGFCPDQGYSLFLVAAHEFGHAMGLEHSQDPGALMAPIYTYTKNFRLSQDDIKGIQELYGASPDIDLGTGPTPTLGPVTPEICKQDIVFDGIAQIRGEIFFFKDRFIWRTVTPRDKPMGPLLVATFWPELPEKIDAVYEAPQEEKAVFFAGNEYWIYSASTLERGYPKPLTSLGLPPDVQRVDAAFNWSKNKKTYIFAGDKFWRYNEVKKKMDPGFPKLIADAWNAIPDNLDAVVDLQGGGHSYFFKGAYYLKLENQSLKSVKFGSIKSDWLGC
In short: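 APMA-activated recombinant MMP-2 (final e.g. 2 nM) in 50 mM Tris/HCl pH 7.5, 10 mM CaCl2, 150 mM NaCl, 0.05% Brij-35, with compound in DMSO. Started with quenched Mca-PLGL-Dpa(Dnp)-AR-NH2 (e.g. 10 μM); fluorescence (ex 320/em 410 nm) followed e.g. 120 min at 32° C.; IC50 at 50% signal.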

T1 sequence (P51512 120-564 limits assumed): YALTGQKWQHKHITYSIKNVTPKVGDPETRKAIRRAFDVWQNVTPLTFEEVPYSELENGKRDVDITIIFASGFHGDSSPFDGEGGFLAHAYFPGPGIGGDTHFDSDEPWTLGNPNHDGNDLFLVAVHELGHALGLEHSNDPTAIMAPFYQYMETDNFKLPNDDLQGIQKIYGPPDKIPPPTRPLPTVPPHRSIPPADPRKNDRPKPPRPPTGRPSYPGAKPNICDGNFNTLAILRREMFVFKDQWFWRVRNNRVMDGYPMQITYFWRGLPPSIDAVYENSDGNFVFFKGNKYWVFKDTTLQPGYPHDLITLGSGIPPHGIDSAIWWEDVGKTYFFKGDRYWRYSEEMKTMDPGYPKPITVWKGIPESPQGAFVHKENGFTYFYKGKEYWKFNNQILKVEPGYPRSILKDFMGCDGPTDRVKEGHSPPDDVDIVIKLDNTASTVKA

| Molecule | IC50 (MMP-16) [nM] | IC50 (MMP-1) [nM] | IC50 (MMP-2) [nM] |
| --- | --- | --- | --- |
| COc1cccc(COc2ccc(C(=O)[C@@H]3CC[C@H](Cn4nnc5ccc(C)cc5c4=O)[C@H]3C(=O)O)cc2)c1 (single isomer, unassigned) [Example 107, (+)-(1RS,2RS,5SR)-2-{4-[(3-Methoxybenzyl)oxy]benzoyl}-5-[(6-methyl-4-oxo-1,2,3-benzotriazin-3(4H)-yl)methyl]cyclopentanecarboxylic acid] | 650 | 11000 | 300 |
| Cc1ccc2nnn(C[C@H]3CC[C@@H](C(=O)c4ccc(OCC5CCCCC5)cc4)[C@@H]3C(=O)O)c(=O)c2c1 (single isomer, unassigned) [Example 117, (+)-(1RS,2RS,5SR)-2-[4-(Cyclohexylmethoxy)benzoyl]-5-[(6-methyl-4-oxo-1,2,3-benzotriazin-3(4H)-yl)methyl]cyclopentanecarboxylic acid] | 260 | 4400 | 97 |
| CCCCCCOc1ccc(C(=O)[C@@H]2CC[C@H](Cn3nnc4ccc(C)cc4c3=O)[C@H]2C(=O)O)cc1 (single isomer, unassigned) [Example 121, (+)-(1RS,2RS,5SR)-2-[4-(Hexyloxy)benzoyl]-5-[(6-methyl-4-oxo-1,2,3-benzotriazin-3(4H)-yl)methyl]cyclopentanecarboxylic acid] | 1900 | 13000 | 280 |
| COC(=O)Nc1cccc(COc2ccc(C(=O)[C@@H]3CC[C@H](Cn4nnc5ccc(C(F)(F)F)cc5c4=O)[C@H]3C(=O)O)cc2)c1 (stereo in doubt) [Example 31, (+)-(1RS,2RS,5SR)-2-[4-({3-[(Methoxycarbonyl)amino]benzyl}oxy)benzoyl]-5-{[4-oxo-6-(trifluoromethyl)-1,2,3-benzotriazin-3(4H)-yl]methyl}cyclopentanecarboxylic acid] | 890 | 5400 | 830 |
| (+)-(1RS,2RS,5SR)-2-{4-[(3,4-Dichlorobenzyl)oxy]benzoyl}-5-{[4-oxo-6-(trifluoromethyl)-1,2,3-benzotriazin-3(4H)-yl]methyl}cyclopentanecarboxylic acid [Example 28] | 2200 | 17000 | 700 |

Other lines, results leading:

| IC50 (MMP-16) [nM] | IC50 (MMP-1) [nM] | IC50 (MMP-2) [nM] | Molecule |
| --- | --- | --- | --- |
| 2100 | > 40000 | 850 | Cc1ccc2nnn(C[C@H]3CC[C@@H](C(=O)c4ccc(OCc5cccc(OC(F)(F)F)c5)cc4)[C@@H]3C(=O)O)c(=O)c2c1 (single isomer, unassigned) [Example 110, (+)-(1RS,2SR,5RS)-2-[(6-Methyl-4-oxo-1,2,3-benzotriazin-3(4H)-yl)methyl]-5-(4-{[3-(trifluoromethoxy)benzyl]oxy}benzoyl)cyclopentanecarboxylic acid] |
| 14000 | 27000 | 4800 | (+)-(1RS,2RS,5SR)-2-{4-[Cyclohexyl)methyl)sulphanyl]benzoyl}-5-{[4-oxo-6-(trifluoromethyl)-1,2,3-benzotriazin-3(4H)-yl]methyl}cyclopentanecarboxylic acid [Example 86] |
| > 40000 | > 40000 | 6700 | (+)-(1RS,2SR,5RS)-2-{[4-Oxo-6-(trifluoromethyl)-1,2,3-benzotriazin-3(4H)-yl]methyl}-5-{4-[(2-phenylethy)sulphanyl]benzoyl}cyclopentanecarboxylic acid [Example 83] |
